Key:
alpha-1A adrenoceptors = target: T1, alpha-1A adrenoceptors (Homo sapiens, UniProt P35348); test: alpha-1A adrenoceptor partial agonist activity (intrinsic activity and pEC50)
T1 sequence (P35348 1-466): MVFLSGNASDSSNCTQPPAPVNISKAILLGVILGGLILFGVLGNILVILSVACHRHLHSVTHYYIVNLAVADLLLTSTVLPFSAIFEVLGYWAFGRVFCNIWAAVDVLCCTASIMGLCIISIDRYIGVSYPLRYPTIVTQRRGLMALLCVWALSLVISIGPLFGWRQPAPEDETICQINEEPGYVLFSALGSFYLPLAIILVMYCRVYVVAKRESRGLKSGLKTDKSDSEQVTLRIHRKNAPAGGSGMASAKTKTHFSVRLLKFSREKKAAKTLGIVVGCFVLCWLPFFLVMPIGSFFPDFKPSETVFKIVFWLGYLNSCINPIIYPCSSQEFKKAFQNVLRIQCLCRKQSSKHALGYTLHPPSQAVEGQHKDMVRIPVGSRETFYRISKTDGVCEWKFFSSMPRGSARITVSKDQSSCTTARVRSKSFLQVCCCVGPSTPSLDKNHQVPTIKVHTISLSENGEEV

[1] = system: Female Yucatan Micro-Swine; test: Conscious pig model: IUP, MAP and HR during infusion; type: in vivo; details: infusion via ear vein for two hours
Method: Sling Training: Female Yucatan Micro-Swine were trained to stay in a sling for up to 4 hours. Swine were exposed to progressively longer sling durations per IACUC sling-training guideline.
Surgical Instrumentation: Female Yucatan Micro-swine were instrumented with a telemetry device with both pressure and ECG monitoring capabilities (Data Sciences International St Paul Minn.). In addition, a Bardport low profile titanium VAP was placed subcutanteously for blood sampling. All devices were implanted by the surgical veterinarian at Roche Palo Alto. Briefly, the telemetry probe body was placed subcutaneously in the cervical region. The intra-arterial pressure catheter was advanced via the superficial cervical artery into the subclavian artery for blood pressure measurement. […]
Experiment: After the swine was fully awake and stable (usually approximately 1 hour post wake up), baseline blood pressure, IUP, and heart rate parameters were determined. […]
Data Generating and Analysis Systems: Cardiovascular readings were generated by the TL11M3-D70-PCP (Data Sciences International, St. Paul, Minn.) telemetry device and associated hardware. […] IUP was monitored by a solid state catheter connected to a TA6000 Polygraph (Data Sciences International, St. Paul, Minn.). […]

[2] = system: Female, Dutch Belted rabbits; test: Anesthetized rabbit model: change in IUP and MAP, slope of IUP response; type: in vivo; details: i.v.
Method: In general, IUP is the intraurethral pressure and is measured as the 2 minute mean from the first peak of the urethral response (FIG. 1). MAP is the mean arterial blood pressure and is measured as the average blood pressure during the 2 minute section where IUP is measured. The durability is the slope of the IUP response in mmHg/min and is calculated immediately after the 2 minute IUP response for 5 minutes (2-7 minutes post the first peak) for the top 3 doses.
Surgery: Female, Dutch Belted rabbits (1.20-2.0 kg, Myrtle's Rabbitry, Tenn.) were anesthetized with isoflurane (3.0% at 2 to 4 L/min) and urethane (1.5 grams/kg, s.c.). In preparation for surgery, the rabbits were shaved, scrubbed (i.e., perineal area, ventral neck, and ventral, caudal surface of the abdomen) and were administered Ringers Lactate Solution (s.c.) to maintain fluids. […]
Experiment: The arterial cannula was connected to a P23XL, pressure transducer (Grass Technologies, West Warwick, R.I.) and the arterial pressure transducer and Unisensor urethral transducer catheter were connected to an Gould 13-6615-50 amplifier (Data Sciences International, St. Paul, Minn.) and Gould TA6000 recorder (Data Sciences International, St. Paul, Minn.) in parallel. All data was analyzed using Power Lab Chart version 5.0.2 (ADInstruments, Colorado Springs, Colo.) data acquisition system. […]
Measurements: The change in IUP and MAP from baseline were measured as well as the slope of the IUP response. MAP was first calculated according to the following formula, where Pd is diastolic pressure and Ps is systolic pressure: MAP=Pd+1/3(Ps−Pd). Pre-dose baseline values for IUP and MAP were assessed during a 2 min period just prior to vehicle or test compound administration. Post-dose values for IUP or MAP were determined during a 2 min period at the first peak in the IUP tracing following vehicle or test compound administration. The change in IUP and MAP induced by vehicle or test compound were then calculated by subtracting the pre-dose value from the post-dose value. […]

**Q.** Which results are given for CS(=O)(=O)Nc1ccc(CC2=NCCN2)c(Br)c1Cl [Formula I, N-[3-Bromo-2-chloro-4-(4,5-dihydro-1H-imidazol-2-ylmethyl)-phenyl]-methanesulfonamide]?
**A.** intrinsic activity, or efficacy, as a partial agonist (alpha-1A adrenoceptors; ideally between 0.35 to 0.60): 0.38; EC50 (alpha-1A adrenoceptors; read-out: affinity, or pEC50 value (converted)): 251 nM; IUP durability [1]: exceptional IUP durability; maximum increase in MAP [2]: 9.75 mmHg; selectivity for enhancement of intraurethral pressure (IUP) over blood pressure (MAP) ([2]; at the 10 mmHg change in IUP level (ED10 of MAP/ED10 of IUP)): 38 fold; durability of IUP response over time ([2]; slope of IUP response 2-7 minutes post the first peak, top 3 doses): increased durability of IUP response over time

Source: US20090197932A1, “IMIDAZOLINYLMETHYL ARYL SULFONAMIDE” (priority 2008, published 2009)
